The values below come from US20230265151A1, “GIP/GLP1 CO-AGONIST COMPOUNDS” (priority 2020, published 2023).

Where two headings read alike, the source gives them in different places. A value given as a limit tells only on which side of the number the result lay.

What all share (assay type): cell-based
For one assay, the target named is T1, hGIPR (Homo sapiens, UniProt P48546).
T1 construct: expressed in transfected cells
T1 sequence (P48546 22-466): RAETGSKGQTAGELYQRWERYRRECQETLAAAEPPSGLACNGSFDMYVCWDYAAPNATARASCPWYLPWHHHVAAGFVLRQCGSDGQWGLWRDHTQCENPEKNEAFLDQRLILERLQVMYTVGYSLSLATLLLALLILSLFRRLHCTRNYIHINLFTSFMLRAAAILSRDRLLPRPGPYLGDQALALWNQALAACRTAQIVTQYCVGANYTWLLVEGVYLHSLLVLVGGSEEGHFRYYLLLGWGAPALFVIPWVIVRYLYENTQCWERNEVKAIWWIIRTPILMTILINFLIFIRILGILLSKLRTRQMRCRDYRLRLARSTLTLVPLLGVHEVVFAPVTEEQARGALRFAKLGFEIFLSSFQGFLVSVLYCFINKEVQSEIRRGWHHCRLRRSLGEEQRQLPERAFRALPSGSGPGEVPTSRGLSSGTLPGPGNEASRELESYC
Put plainly: Functional cAMP formation (HTRF) in HEK-293 clonal cells expressing hGIPR, 0.1% bovine casein, without or with 1.0% human serum albumin. Particulars: for Emax: read-out: hGIPR Emax, % ± SEM; for EC50: cAMP, 0.1% bovine casein (no human serum albumin), geometric mean. The method, boiled down: (§1)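 Cells were stimulated with peptide for 30 min at 37° C, then intracellular cAMP was measured by competitive HTRF (665/620 nm ratio) and converted to nM using a cAMP standard curve. Relative EC50 and Emax came from four-parameter logistic fits of percent maximal response against peptide concentration.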
(Changes in cAMP serve as a functional read-out for many G protein-coupled receptors.)

The next assay concerns the target T2, hGCGR (Homo sapiens, UniProt P47871).
T2 construct: expressed in transfected cells
Put plainly: Functional cAMP formation (HTRF) in HEK-293 clonal cells expressing hGCGR, 0.1% bovine casein, without or with 1.0% human serum albumin. The method, boiled down:
as §1

In another assay the target is hGLP-1R (Homo sapiens, UniProt P43220). Description: Functional cAMP formation (HTRF) in HEK-293 clonal cells expressing hGLP-1R, 0.1% bovine casein, without or with 1.0% human serum albumin. Also on record: expressed in transfected cells. Particulars: for EC50: cAMP. The method in brief:
as §1

[1] abbreviates: 37° C., read-out: hGIPR EC50, nM (SEM, n).
[2] abbreviates: cAMP, 37° C., 0.1% bovine casein (no human serum albumin), geometric mean, read-out: hGCGR EC50, nM (SEM, n).
Where [3] appears, read: 37° C., 0.1% bovine casein (no human serum albumin), geometric mean, read-out: hGLP-1R EC50, nM (SEM, n).
The mark [4] stands for this setting: HEK293, 0.1% bovine casein and 1.0% human serum albumin, 37° C., percent of maximal response to GIP(1-42)NH2.
[5] abbreviates: 0.1% bovine casein and 1.0% human serum albumin, 37° C., geometric mean, read-out: hGCGR EC50, nM (SEM, n).

T2 sequence (P47871 26-477): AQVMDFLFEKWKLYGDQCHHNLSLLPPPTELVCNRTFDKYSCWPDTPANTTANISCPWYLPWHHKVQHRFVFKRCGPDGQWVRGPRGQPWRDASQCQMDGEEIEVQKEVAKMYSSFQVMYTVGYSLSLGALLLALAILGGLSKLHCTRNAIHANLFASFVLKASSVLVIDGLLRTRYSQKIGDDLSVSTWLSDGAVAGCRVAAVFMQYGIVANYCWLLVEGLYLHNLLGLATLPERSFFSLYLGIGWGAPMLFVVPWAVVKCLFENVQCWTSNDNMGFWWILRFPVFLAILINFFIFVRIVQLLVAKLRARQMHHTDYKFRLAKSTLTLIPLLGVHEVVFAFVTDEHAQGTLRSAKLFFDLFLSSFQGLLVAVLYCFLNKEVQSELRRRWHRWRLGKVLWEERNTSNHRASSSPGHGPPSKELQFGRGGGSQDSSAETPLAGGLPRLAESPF
Sequence of hGLP-1R (P43220 24-463): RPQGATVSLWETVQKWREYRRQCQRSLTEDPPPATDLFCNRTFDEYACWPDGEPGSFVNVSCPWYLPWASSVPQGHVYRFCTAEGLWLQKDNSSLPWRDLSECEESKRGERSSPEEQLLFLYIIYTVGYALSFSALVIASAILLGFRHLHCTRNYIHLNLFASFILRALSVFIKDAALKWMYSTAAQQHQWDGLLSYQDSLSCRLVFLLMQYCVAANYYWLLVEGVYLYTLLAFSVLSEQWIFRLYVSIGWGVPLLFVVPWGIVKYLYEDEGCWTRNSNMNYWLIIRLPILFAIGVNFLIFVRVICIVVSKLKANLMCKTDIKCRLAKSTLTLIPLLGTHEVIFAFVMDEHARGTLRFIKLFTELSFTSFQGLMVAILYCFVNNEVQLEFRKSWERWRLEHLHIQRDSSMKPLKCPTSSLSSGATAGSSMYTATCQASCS

The Emax is the greatest response seen or fitted, relative to the assay's reference. In general, EC50 refers to the concentration at which the effect is half-maximal. `CC[C@H](C)[C@H](NC(=O)[C@H](CC(C)C)NC(=O)[C@](C)(Cc1ccc(O)cc1)NC(=O)[C@H](CCCCNC(=O)COCCOCCNC(=O)COCCOCCNC(=O)CC[C@H](NC(=O)CCCCCCCCCCCCC(=O)O)C(=O)O)NC(=O)[C@@H](NC(=O)[C@H](Cc1ccccc1)NC(=O)[C@H](Cc1ccncc1)NC(=O)C(C)(C)NC(=O)[C@H](CCC(N)=O)NC(=O)[C@H](C)NC(=O)[C@H](CCC(N)=O)NC(=O)[C@H](CCCN)NC(=O)[C@H](CC(=O)O)NC(=O)[C@H](CC(C)C)NC(=O)[C@](C)(CC(C)C)NC(=O)[C@@H](NC(=O)C(C)(C)NC(=O)[C@H](Cc1ccncc1)NC(=O)[C@H](CC(=O)O)NC(=O)[C@H](CO)NC(=O)[C@@H](NC(=O)[C@](C)(Cc1ccccc1F)NC(=O)[C@@H](NC(=O)CNC(=O)[C@H](CCC(=O)O)NC(=O)C(C)(C)NC(=O)[C@@H](N)Cc1ccc(O)cc1)[C@@H](C)O)[C@@H](C)O)[C@@H](C)CC)[C@@H](C)CC)C(=O)N[C@@H](CCCCNC(=O)COCCOCCNC(=O)COCCOCCNC(=O)CC[C@H](NC(=O)CCCCCCCCCCCCC(=O)O)C(=O)O)C(=O)NCC(=O)NCC(=O)N1CCC[C@H]1C(=O)N[C@@H](CO)C(=O)N[C@@H](CO)C(=O)NCC(=O)N[C@@H](C)C(=O)N1CCC[C@H]1C(=O)N1CCC[C@H]1C(=O)N1CCC[C@H]1C(=O)N[C@@H](CO)C(N)=O` [Example 444]: the Emax on hGIPR (HEK293, cAMP, 37° C., 0.1% bovine casein and 1.0% human serum albumin, percent of maximal response to GIP(1-42)NH2) was 83.6%; at hGIPR (HEK293, cAMP, 37° C., 0.1% bovine casein, percent of maximal response to GIP(1-42)NH2, arithmetic mean), 93.6%; on hGLP-1R (HEK293, cAMP, 37° C., 0.1% bovine casein and 1.0% human serum albumin, percent of maximal response to GLP-1(7-36)NH2, read-out: hGLP-1R Emax, % ± SEM) it was 98.8%. The EC50 on hGIPR (setting [1]) is 0.0157 nM; at hGCGR (setting [2]) it was over 9950 nM; at hGCGR (cAMP, 37° C., 0.1% bovine casein and 1.0% human serum albumin, geometric mean (SEM, n), read-out: hGCGR EC50, nM (SEM, n)), over 9950 nM; at hGLP-1R (setting [3]), 0.289 nM; at hGLP-1R (37° C., 0.1% bovine casein and 1.0% human serum albumin, geometric mean (SEM, n), read-out: hGLP-1R EC50, nM (SEM, n)), 7.51 nM.
As for `CC[C@H](C)[C@H](NC(=O)[C@H](CC(C)C)NC(=O)[C@](C)(Cc1ccc(O)cc1)NC(=O)[C@H](CCCCNC(=O)COCCOCCNC(=O)COCCOCCNC(=O)CC[C@H](NC(=O)CCCCCCCCCCCCC(=O)O)C(=O)O)NC(=O)[C@@H](NC(=O)[C@](C)(Cc1ccccc1)NC(=O)[C@H](CCC(=O)O)NC(=O)C(C)(C)NC(=O)[C@H](CCC(N)=O)NC(=O)[C@H](C)NC(=O)[C@H](CCCCNC(=O)COCCOCCNC(=O)COCCOCCNC(=O)CC[C@H](NC(=O)CCCCCCCCCCCCC(=O)O)C(=O)O)NC(=O)[C@H](CCCN)NC(=O)[C@H](CC(=O)O)NC(=O)[C@H](CC(C)C)NC(=O)[C@](C)(CC(C)C)NC(=O)[C@@H](NC(=O)C(C)(C)NC(=O)[C@@H](NC(=O)[C@H](CC(=O)O)NC(=O)[C@H](CO)NC(=O)[C@@H](NC(=O)[C@](C)(Cc1ccccc1F)NC(=O)[C@@H](NC(=O)CNC(=O)[C@H](CCC(=O)O)NC(=O)C(C)(C)NC(=O)[C@@H](N)Cc1ccc(O)cc1)[C@@H](C)O)[C@@H](C)O)C(C)C)[C@@H](C)CC)[C@@H](C)CC)C(=O)N[C@@H](CCC(=O)O)C(=O)NCC(=O)NCC(=O)N1CCC[C@H]1C(=O)N[C@@H](CO)C(=O)N[C@@H](CO)C(=O)NCC(=O)N[C@@H](C)C(=O)N1CCC[C@H]1C(=O)N1CCC[C@H]1C(=O)N1CCC[C@H]1C(=O)N[C@@H](CO)C(N)=O` [Example 119], the 50% effective concentration (EC50) on hGIPR (hGIPR EC50, nM (SEM, n), incubated at 37° C.) is 0.0863 nM; on hGCGR (hGCGR EC50, nM (SEM, n), cAMP, incubated at 37° C., 0.1% bovine casein (no human serum albumin), geometric mean), over 9950 nM; on hGLP-1R (hGLP-1R EC50, nM (SEM, n), incubated at 37° C., 0.1% bovine casein (no human serum albumin), geometric mean), 0.351 nM. For the same molecule, at hGLP-1R (HEK293, read-out: hGLP-1R Emax, % ± SEM, percent of maximal response to GLP-1(7-36)NH2, 37° C., 0.1% bovine casein, arithmetic mean), the Emax is 99.4%.
For `CC[C@H](C)[C@H](NC(=O)[C@H](CC(C)C)NC(=O)[C@](C)(Cc1ccc(O)cc1)NC(=O)[C@@H](CCC(=O)O)NC(=O)[C@@H](NC(=O)[C@H](Cc1ccccc1)NC(=O)[C@H](CCCCNC(=O)COCCOCCNC(=O)COCCOCCNC(=O)CC[C@H](NC(=O)CCCCCCCCCCCCC(=O)O)C(=O)O)NC(=O)C(C)(C)NC(=O)[C@H](CCC(N)=O)NC(=O)[C@H](C)NC(=O)[C@H](CCCCNC(=O)COCCOCCNC(=O)COCCOCCNC(=O)CC[C@H](NC(=O)CCCCCCCCCCCCC(=O)O)C(=O)O)NC(=O)[C@H](CCCN)NC(=O)[C@H](CC(=O)O)NC(=O)[C@H](CC(C)C)NC(=O)[C@](C)(CC(C)C)NC(=O)[C@@H](NC(=O)C(C)(C)NC(=O)[C@@H](NC(=O)[C@H](CC(=O)O)NC(=O)[C@H](CO)NC(=O)[C@@H](NC(=O)[C@](C)(Cc1ccccc1F)NC(=O)[C@@H](NC(=O)CNC(=O)[C@H](CCC(=O)O)NC(=O)C(C)(C)NC(=O)[C@@H](N)Cc1ccc(O)cc1)[C@@H](C)O)[C@@H](C)O)C(C)C)[C@@H](C)CC)[C@@H](C)CC)C(=O)N[C@@H](CCC(=O)O)C(=O)NCC(=O)NCC(=O)N1CCC[C@H]1C(=O)N[C@@H](CO)C(=O)N[C@@H](CO)C(=O)NCC(=O)N[C@@H](C)C(=O)N1CCC[C@H]1C(=O)N1CCC[C@H]1C(=O)N1CCC[C@H]1C(=O)N[C@@H](CO)C(N)=O` [Example 318], the Emax on hGIPR (setting [4]) was determined as 91.4%. In addition, the EC50 at hGIPR (setting [1]) is 0.0402 nM; at hGCGR (setting [5]), over 9950 nM; on hGCGR (setting [2]) it was over 9950 nM; on hGLP-1R (setting [3]), 0.219 nM.
Take `CC[C@H](C)[C@H](NC(=O)[C@H](CC(C)C)NC(=O)[C@](C)(Cc1ccc(O)cc1)NC(=O)[C@@H](CCC(=O)O)NC(=O)[C@@H](NC(=O)[C@H](Cc1ccccc1)NC(=O)[C@H](CCC(=O)O)NC(=O)C(C)(C)NC(=O)[C@H](CCC(N)=O)NC(=O)[C@H](C)NC(=O)[C@H](CCCCNC(=O)COCCOCCNC(=O)COCCOCCNC(=O)CC[C@H](NC(=O)CCCCCCCCCCCCC(=O)O)C(=O)O)NC(=O)[C@H](CCCN)NC(=O)[C@H](CC(=O)O)NC(=O)[C@H](CC(C)C)NC(=O)[C@](C)(CC(C)C)NC(=O)[C@@H](NC(=O)[C@](C)(CO)NC(=O)[C@H](Cc1ccncc1)NC(=O)[C@H](CC(=O)O)NC(=O)[C@H](CO)NC(=O)[C@@H](NC(=O)[C@](C)(Cc1ccccc1F)NC(=O)[C@@H](NC(=O)CNC(=O)[C@H](CCC(=O)O)NC(=O)C(C)(C)NC(=O)[C@@H](N)Cc1ccc(O)cc1)[C@@H](C)O)[C@@H](C)O)[C@@H](C)CC)[C@@H](C)CC)C(=O)N[C@@H](CCC(=O)O)C(=O)NCC(=O)NCC(=O)N[C@@H](CCCCNC(=O)COCCOCCNC(=O)COCCOCCNC(=O)CC[C@H](NC(=O)CCCCCCCCCCCCC(=O)O)C(=O)O)C(=O)N[C@@H](CO)C(=O)N[C@@H](CO)C(=O)NCC(=O)N[C@@H](C)C(=O)N1CCC[C@H]1C(=O)N1CCC[C@H]1C(=O)N1CCC[C@H]1C(=O)N[C@@H](CO)C(N)=O` [Example 213]: the Emax is 95.6% at hGIPR (setting [4]); 92% on hGIPR (HEK293, percent of maximal response to GIP(1-42)NH2, 37° C., 0.1% bovine casein, arithmetic mean); 94.8% at hGLP-1R (HEK293, percent of maximal response to GLP-1(7-36)NH2, 37° C., 0.1% bovine casein, arithmetic mean, read-out: hGLP-1R Emax, % ± SEM). The EC50 at hGCGR (setting [5]) was over 9950 nM; at hGCGR (cAMP, incubated at 37° C., 0.1% bovine casein (no human serum albumin), geometric mean, read-out: hGCGR EC50, nM (SEM, n)), over 9950 nM.
